Data: patent US10399933B2, “Inhibitors of indoleamine-2,3-dioxygenase for the treatment of cancer” (BRISTOL-MYERS SQUIBB COMPANY, priority 2015, dated 2019)

Each compound was assayed against T1, human IDO1 (Homo sapiens, UniProt P14902) (assay: Human IDO-1 inhibitory activity in HEK cells (human IDO1/HEK293 cellular assay)). Conditions: HEK human IDO-1 cellular assay; 500 nM reference standard = 100% inhibition, DMSO = 0%.
Assay type: cell-based
Set-up: expressed in transfected cells
Procedure: They were cultured in medium (DMEM with 10% FBS) containing 1 mg/ml G418 for two weeks.
The human IDO1/HEK293 cells were seeded at 10,000 cells per 50 μL per well with RPMI/phenol red free media contains 10% FBS in a 384-well black wall clear bottom tissue culture plate (Matrix Technologies LLC) 100 nL of certain concentration of compound was then added to each well using ECHO liquid handling systems. The cells were incubated for 20 hours in 37° C. incubator with 5% CO2.
The compound treatments were stopped by adding trichloroacetic acid (Sigma-Aldrich) to a final concentration at 0.2%. The cell plate was further incubated at 50° C. for 30 minute. The equal volume supernatant (20 μL) and 0.2% (w/v) Ehrlich reagent (4-dimethylaminobenzaldehyde, Sigma-Aldrich) in glacial acetic acid were mixed in a new clear bottom 384-well plate. This plate was then incubated at room temperature for 30 minute. The absorbance at 490 nm was measured on Envision plate reader.

T1 sequence (P14902 whole entry): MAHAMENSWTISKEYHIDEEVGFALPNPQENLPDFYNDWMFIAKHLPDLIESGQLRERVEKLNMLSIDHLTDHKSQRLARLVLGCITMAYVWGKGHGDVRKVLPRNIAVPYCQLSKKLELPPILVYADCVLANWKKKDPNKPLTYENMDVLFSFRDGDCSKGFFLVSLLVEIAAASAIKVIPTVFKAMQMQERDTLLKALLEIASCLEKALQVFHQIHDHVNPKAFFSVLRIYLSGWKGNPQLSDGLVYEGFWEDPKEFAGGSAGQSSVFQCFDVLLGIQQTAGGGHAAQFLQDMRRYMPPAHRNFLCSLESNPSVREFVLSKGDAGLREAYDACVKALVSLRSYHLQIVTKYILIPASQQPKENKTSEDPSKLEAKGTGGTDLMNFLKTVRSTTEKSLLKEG

Compound | IC50 [nM]
3-(4-((1,1- dioxidotetrahydro-2H- thiopyran-4-yl)(ethyl) amino)-3-((4-fluorophenyl) amino)phenyl)-4- isopropoxybutanoic acid [Example 300] | < 50
3-(4-((1,1-dioxidotetrahydro-2H- thiopyran-4-yl)(ethyl)amino)-3-((4- fluorophenyl)amino)phenyl)-4- isopropoxybutanoic acid [Example 338] | < 50
CCC(CC(=O)O)c1cc(F)c(N(CC(C)C)C2CCCCC2)c(NC(=O)Nc2ccc(Cl)cc2F)c1 (racemic) [Example 1090, 3-(3-(3-(4-chloro-2-fluorophenyl)ureido)-4-(cyclohexyl(isobutyl)amino)-5-fluorophenyl)pentanoic acid] | < 5
CCC(CC(=O)O)c1ccc(N(CC)C2CCCOC2)c(Nc2ccc(Cl)cc2)c1 (single isomer, unassigned) [Example 60 E1, 3-(3-((4-Chlorophenyl)amino)-4-(ethyl(tetrahydro-2H-pyran-3-yl)amino)phenyl)pentanoic Acid] | < 5
CC[C@H](CC(=O)O)c1ccc(N2CCOC[C@@H]2C(C)C)c(Nc2ccc(F)cc2)c1 (single isomer, unassigned) [Example 90] | < 50

Each compound was assayed against T1, human IDO1 (assay: Human IDO-1 inhibitory activity in Hela cells (interferon-gamma stimulated)). Conditions: 18 hours, unstimulated wells = 100% inhibition.
Assay type: cell-based
Set-up: endogenous in cells; host or cells: HeLa cells stimulated with interferon-gamma
Procedure: HeLa cells were seeded at 20,000 cells per 30 μL per well with RPMI/phenol red free media containing 10% FBS in a 384-well tissue culture plate (black with clear bottoms). 50 nL of compound was added to cells and incubated at 37° C. for one hour. 20 μL of the recombinant human Interferon-gamma (R&D System, Cat. #285-IF, at final concentration of 10 ng/ml) or recombinant murine Interferon-gamma (PEPROTECH® Inc., Cat. #315-05, final concentration of 5 ng/ml) was added to activate IDO signaling. The cells were incubated for 18 hours in 37° C. incubator with 5% CO2.
Compound treatment was stopped by adding 5 μl trichloroacetic acid to a final concentration of 3%. Subsequently, the cell plate was further incubated at 50° C. for 30 minute. An equal volume supernatant (20 μL) and 2% (w/v) Ehrlich reagent (4-dimethylaminobenzaldehyde) in glacial acetic acid were mixed in a new clear bottom 384-well plate. This plate was incubated at room temperature for 30 minutes. Absorbance at 490 nm was measured on Envision plate reader.
Compound IC50 values were calculated using counts from unstimulated (no INF-gamma treatment) wells as 100% inhibition. INF-gamma treatment without compound treatment as 0% inhibition.

Compound | IC50 [nM]
CC(CC(=O)O)c1ccc(N2C[C@@H](C)O[C@@H](C)C2)c(NC(=O)Nc2ccc(Cl)cc2F)c1 (single isomer, unassigned) [Example 749 Enantiomer 2] | > 50
CCN(c1cc(F)c(C(COC)CC(=O)O)cc1Nc1ccc(C#N)c(F)c1)C1CCOCC1 (single isomer, unassigned) [Example 853, 3-(5-((4-cyano-3-fluorophenyl)amino)-4-(ethyl(tetrahydro-2H-pyran-4-yl)amino)-2-fluorophenyl)-4-methoxybutanoic acid] | < 5
CCN(c1cc(F)c(C(COC)CC(=O)O)cc1Nc1ccc(C#N)cc1F)C1CCOCC1 (single isomer, unassigned) [Example 854, 3-(5-((4-cyano-2-fluorophenyl)amino)-4-(ethyl(tetrahydro-2H-pyran-4-yl)amino)-2-fluorophenyl)-4-methoxybutanoic acid] | < 5
CCC(CC(=O)O)c1ccc(N(CCOC)C2CCOCC2)c(Nc2ccc(Cl)cc2)c1 (single isomer, unassigned) [Example 1257 E2, 3-(3-((4-Chlorophenyl)amino)-4-((2-methoxyethyl)(tetrahydro-2H-pyran-4-yl)amino)phenyl)pentanoic Acid] | < 5
CCC(CC(=O)O)c1ccc(N(CCOC)C2CCOCC2)c(NC(=O)Nc2ccc(C)cc2)c1 (single isomer, unassigned) [Example 1264 E2, 3-(4-((2-Methoxyethyl)(tetrahydro-2H-pyran-4-yl)amino)-3-(3-(p-tolyl)ureido)phenyl)pentanoic Acid] | > 50
COCC(CC(=O)O)c1ccc(N2CCOC(C)C2)c(Nc2ccc(Cl)cc2)c1 (single isomer, unassigned) [Example 1311 D1, 3-(3-((4-Chlorophenyl)amino)-4-(2-methylmorpholino)phenyl)-4-methoxybutanoic Acid] | > 50
COCC(CC(=O)O)c1ccc(N2CCOC(C)C2)c(NC(=O)Nc2ccc(Cl)cc2F)c1 (single isomer, unassigned) [Example 1314 D2, 3-(3-(3-(4-Chloro-2-fluorophenyl)ureido)-4-(2-methylmorpholino)phenyl)-4-methoxybutanoic Acid] | > 50
COCC(CC(=O)O)c1ccc(N2CCOC(C)(C)C2)c(Nc2ccc(Cl)cc2)c1 (single isomer, unassigned) [Example 1315 E2, 3-(3-((4-Chlorophenyl)amino)-4-(2,2-dimethylmorpholino)phenyl)-4-methoxybutanoic Acid] | > 50
COCC(CC(=O)O)c1ccc(N2CCOC(C)(C)C2)c(NC(=O)Nc2ccc(Cl)cc2F)c1 (single isomer, unassigned) [Example 1318 E2, 3-(3-(3-(4-Chloro-2-fluorophenyl)ureido)-4-(2,2-dimethylmorpholino)phenyl)-4-methoxybutanoic Acid] | > 50
CCC(CC(=O)O)c1ccc(N2CCOC(C)(C)C2)c(Nc2ccc(Cl)cc2)c1 (single isomer, unassigned) [Example 1319 E2, 3-(3-((4-Chlorophenyl)amino)-4-(2,2-dimethylmorpholino)phenyl)pentanoic Acid] | < 50
CCC(CC(=O)O)c1ccc(N2CCOC(C)(C)C2)c(NC(=O)Nc2ccc(Cl)cc2F)c1 (single isomer, unassigned) [Example 1322 E2, 3-(3-(3-(4-Chloro-2-fluorophenyl)ureido)-4-(2,2-dimethylmorpholino)phenyl)pentanoic Acid] | > 50
COC[C@@H](CC(=O)O)c1ccc(N2CCOc3ccccc32)c(Nc2ccc(C#N)cc2)c1 (single isomer, unassigned) [Example 1358] | > 50
COC[C@H](CC(=O)O)c1ccc(N2CCOc3ccccc32)c(Nc2ccc(C#N)cc2)c1 (single isomer, unassigned) [Example 1359] | > 50
CCN(c1ccc(C(COC(C)C)CC(=O)O)cc1Nc1ccc(F)cc1)C1CCS(=O)(=O)CC1 (centres unmarked) [Example 340] | < 50
(R)-3-(3-((4-chlorophenyl)amino)- 4-((1,1-dioxidotetrahydro-2H- thiopyran-4-yl)(ethyl)amino) phenyl)-4-isopropoxybutanoic acid [Example 330] | < 5
(R)-3-(3-((4-cyano-3- methylphenyl)amino)-4- (ethyl(tetrahydro-2H-pyran-4- yl)amino)phenyl)-4- methoxybutanoic acid [Example 391] | < 50
(R)-3-(4-((1,1-dioxidotetrahydro- 2H-thiopyran-4-yl)(ethyl)amino)- 3-((2-ethoxypyrimidin-5- yl)amino)phenyl)-4- isopropoxybutanoic acid [Example 333] | > 50
(R)-3-(4-((1,1-dioxidotetrahydro- 2H-thiopyran-4-yl)(ethyl)amino)- 3-((2-methoxypyrimidin-5- yl)amino)phenyl)-4- isopropoxybutanoic acid [Example 332] | > 50
(R)-3-(4-((1,1-dioxidotetrahydro- 2H-thiopyran-4-yl)(ethyl)amino)- 3-((4-fluorophenyl)amino)phenyl)- 4-isopropoxybutanoic acid [Example 331] | < 50
(R)-3-(4-(ethyl(tetrahydro-2H- pyran-4-yl)amino)-3-((2- (tetrahydro-2H-pyran-4- yl)pyrimidin-5-yl)amino) phenyl)-4-methoxybutanoic acid [Example 403] | > 50
(R)-3-(4-(ethyl(tetrahydro-2H- pyran-4-yl)amino)-3-((3- (1,1,2,2-tetrafluoroethoxy) phenyl)amino)phenyl)-4- methoxybutanoic acid [Example 398] | < 5
(S)-3-(3-((4-chlorophenyl)amino)- 4-((1,1-dioxidotetrahydro-2H- thiopyran-4-yl)(ethyl)amino) phenyl)-4-isopropoxybutanoic acid [Example 325] | < 5
(S)-3-(3-((4-cyano-3- ethoxyphenyl)amino)-4- (ethyl(tetrahydro-2H-pyran- 4-yl)amino)phenyl)-4- methoxybutanoic acid [Example 380] | < 50
(S)-3-(4-((1,1-dioxidotetrahydro- 2H-thiopyran-4-yl)(ethyl)amino)- 3-((2-ethoxypyrimidin-5-yl)amino) phenyl)-4-isopropoxybutanoic acid [Example 328] | > 50
(S)-3-(4-((1,1-dioxidotetrahydro- 2H-thiopyran-4-yl)(ethyl)amino)- 3-((2-methoxypyrimidin-5- yl)amino)phenyl)-4- isopropoxybutanoic acid [Example 327] | > 50
(S)-3-(4-((1,1-dioxidotetrahydro- 2H-thiopyran-4-yl)(ethyl)amino)- 3-((4-fluorophenyl)amino)phenyl)- 4-isopropoxybutanoic acid [Example 326] | < 50
(S)-3-(4-(ethyl(tetrahydro- 2H-pyran-4-yl)amino)-3-((2- (tetrahydro-2H-pyran-4- yl)pyrimidin-5-yl)amino) phenyl)-4-methoxybutanoic acid [Example 366] | > 50
